Activity calls are given as the source filed them. The rule behind the calls is not given here.
Experiments:
Mus musculus [1] = assay: Hepatoprotective activity against CCL4-induced liver damage in ICR mouse assessed as aspartate aminotransferase level at 50 mg/kg, po administered once daily for 7 consecutive days followed by CCL4 challenge 6 hrs after last dose and measured 24 hrs post CCL4 injection (reference value: 625 U/L); type: functional
[2] = target: T1, Nuclear factor erythroid 2-related factor 2 (Homo sapiens) (UniProt Q16236); assay: Activation of Nrf2 (unknown origin) expressed in human HepG2 cells assessed as cytoprotection against CCL4-induced cell injury by measuring increase in cell viability at 2.5 to 20 uM relative to untreated control; type: cell-based
T1 sequence (whole entry): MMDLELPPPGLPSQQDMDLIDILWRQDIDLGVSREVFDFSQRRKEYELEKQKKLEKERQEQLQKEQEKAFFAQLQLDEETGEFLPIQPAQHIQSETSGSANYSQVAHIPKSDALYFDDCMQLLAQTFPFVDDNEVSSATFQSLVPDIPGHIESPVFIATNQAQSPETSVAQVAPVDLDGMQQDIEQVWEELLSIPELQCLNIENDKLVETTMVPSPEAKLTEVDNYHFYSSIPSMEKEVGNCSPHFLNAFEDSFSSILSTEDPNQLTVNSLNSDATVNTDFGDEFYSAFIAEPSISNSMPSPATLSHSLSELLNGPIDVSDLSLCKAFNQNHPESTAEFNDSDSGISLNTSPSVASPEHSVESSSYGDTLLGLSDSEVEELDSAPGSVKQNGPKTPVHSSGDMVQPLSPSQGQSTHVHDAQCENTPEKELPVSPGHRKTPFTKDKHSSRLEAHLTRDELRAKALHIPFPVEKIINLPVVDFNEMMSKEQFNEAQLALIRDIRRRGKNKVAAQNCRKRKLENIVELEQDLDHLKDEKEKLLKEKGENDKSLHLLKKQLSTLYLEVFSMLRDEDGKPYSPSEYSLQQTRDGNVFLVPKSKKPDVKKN

[3] = target: T1, Nuclear factor erythroid 2-related factor 2 (Homo sapiens); assay: Activation of Nrf2 (unknown origin) expressed in human HepG2 cells at 2.5 to 10 uM incubated for 6 hrs by ARE-driven luciferase reporter gene assay; type: cell-based
Rattus norvegicus [4] = assay: VRT (0 to infinity) in Sprague-Dawley rat at 50 mg/kg, po administered as single dose measured after 0.08 to 24 hrs post dose by LC/MS/MS method; type: ADME, organism-based; conditions: in vivo
[5] = MRT (0 to t) in Sprague-Dawley rat at 50 mg/kg, po administered as single dose measured after 0.08 to 24 hrs post dose by LC/MS/MS method; type: ADME, organism-based; conditions: in vivo
[6] = Apparent volume of distribution during terminal phase in Sprague-Dawley rat at 50 mg/kg, po administered as single dose measured after 0.08 to 24 hrs post dose by LC/MS/MS method; type: ADME, organism-based; conditions: in vivo, read-out: Vz/F
Rattus norvegicus [7] = assay: AUC (0 to infinity) in Sprague-Dawley rat at 50 mg/kg, po administered as single dose measured after 0.08 to 24 hrs post dose by LC/MS/MS method; type: ADME, organism-based; design: dose 50 mg/kg, time infinity, route oral; conditions: in vivo
[8] = Tmax in Sprague-Dawley rat at 50 mg/kg, po administered as single dose measured after 0.08 to 24 hrs post dose by LC/MS/MS method; type: ADME, organism-based; conditions: in vivo
Rattus norvegicus [9] = assay: Apparent clearance during terminal phase in Sprague-Dawley rat at 50 mg/kg, po administered as single dose measured after 0.08 to 24 hrs post dose by LC/MS/MS method; type: ADME, organism-based; conditions: in vivo
Mus musculus [10] = assay: Hepatoprotective activity against CCL4-induced liver damage in ICR mouse assessed as reduction in liver lesions by measuring neutrophil infiltration at 50 mg/kg, po administered once daily for 7 consecutive days followed by CCL4 challenge 6 hrs after last dose and measured 24 hrs post CCL4 injection by hematoxylin-eosin staining based light microscopy; type: functional, organism-based
Mus musculus [11] = assay: Hepatoprotective activity against CCL4-induced liver damage in ICR mouse assessed as LDH level at 50 mg/kg, po administered once daily for 7 consecutive days followed by CCL4 challenge 6 hrs after last dose and measured 24 hrs post CCL4 injection (reference value: 2818 U/L); type: functional
Mus musculus [12] = assay: Hepatoprotective activity against CCL4-induced liver damage in ICR mouse assessed as alanine aminotransferase level at 50 mg/kg, po administered once daily for 7 consecutive days followed by CCL4 challenge 6 hrs after last dose and measured 24 hrs post CCL4 injection (reference value: 1025 U/L); type: functional
Mus musculus [13] = assay: Hepatoprotective activity against CCL4-induced liver damage in ICR mouse assessed as reduction in liver lesions by measuring ballooning degeneration at 50 mg/kg, po administered once daily for 7 consecutive days followed by CCL4 challenge 6 hrs after last dose and measured 24 hrs post CCL4 injection by hematoxylin-eosin staining based light microscopy; type: functional, organism-based
Rattus norvegicus [14] = assay: VRT (0 to t) in Sprague-Dawley rat at 50 mg/kg, po administered as single dose measured after 0.08 to 24 hrs post dose by LC/MS/MS method; type: ADME, organism-based; conditions: in vivo
[15] = AUC (0 to t) in Sprague-Dawley rat at 50 mg/kg, po administered as single dose measured after 0.08 to 24 hrs post dose by LC/MS/MS method; type: ADME, organism-based; design: dose 50 mg/kg, time 0.08-24 hr, route oral; conditions: in vivo
[16] = Cmax in Sprague-Dawley rat at 50 mg/kg, po administered as single dose measured after 0.08 to 24 hrs post dose by LC/MS/MS method; type: ADME, organism-based; design: dose 50 mg/kg, route oral; conditions: in vivo
[17] = MRT (0 to infinity) in Sprague-Dawley rat at 50 mg/kg, po administered as single dose measured after 0.08 to 24 hrs post dose by LC/MS/MS method; type: ADME, organism-based; conditions: in vivo
Mus musculus [18] = assay: Hepatoprotective activity against CCL4-induced liver damage in ICR mouse assessed as reduction in liver lesions by measuring necrosis at 50 mg/kg, po administered once daily for 7 consecutive days followed by CCL4 challenge 6 hrs after last dose and measured 24 hrs post CCL4 injection by hematoxylin-eosin staining based light microscopy; type: functional, organism-based
[19] = Half life in Sprague-Dawley rat at 50 mg/kg, po administered as single dose measured after 0.08 to 24 hrs post dose by LC/MS/MS method; type: ADME, organism-based; conditions: in vivo
HepG2 [20] = assay: Cytotoxicity in human HepG2 cells expressing Nrf2/ARE-driven luciferase at 10 to 40 uM incubated for 6 hrs; type: cell-based; conditions: hepg2, 6 h
[21] = target: T1, Nuclear factor erythroid 2-related factor 2 (Homo sapiens); assay: Activation of Nrf2 (unknown origin) expressed in human HepG2 cells at 10 uM incubated for 6 hrs by ARE-driven luciferase reporter gene assay relative to untreated control; type: cell-based
HepG2 [22] = assay: Cytotoxicity in human HepG2 cells expressing Nrf2/ARE-driven luciferase at 20 to 40 uM incubated for 6 hrs; type: cell-based; conditions: hepg2, 6 h
[23] = target: T1, Nuclear factor erythroid 2-related factor 2 (Homo sapiens); assay: Activation of Nrf2 (unknown origin) expressed in human HepG2 cells at 2.5 to 20 uM incubated for 6 hrs by ARE-driven luciferase reporter gene assay; type: cell-based
Mus musculus [24] = assay: Hepatoprotective activity against CCL4-induced liver damage in ICR mouse assessed as reduction in liver lesions by measuring neutrophil infiltration at 100 mg/kg, po administered once daily for 7 consecutive days followed by CCL4 challenge 6 hrs after last dose and measured 24 hrs post CCL4 injection by hematoxylin-eosin staining based light microscopy; type: functional, organism-based
Mus musculus [25] = assay: Hepatoprotective activity against CCL4-induced liver damage in ICR mouse assessed as reduction in liver lesions by measuring ballooning degeneration at 100 mg/kg, po administered once daily for 7 consecutive days followed by CCL4 challenge 6 hrs after last dose and measured 24 hrs post CCL4 injection by hematoxylin-eosin staining based light microscopy; type: functional, organism-based
Mus musculus [26] = assay: Hepatoprotective activity against CCL4-induced liver damage in ICR mouse assessed as aspartate aminotransferase level at 100 mg/kg, po administered once daily for 7 consecutive days followed by CCL4 challenge 6 hrs after last dose and measured 24 hrs post CCL4 injection (reference value: 625 U/L); type: functional, organism-based
Mus musculus [27] = assay: Hepatoprotective activity against CCL4-induced liver damage in ICR mouse assessed as reduction in liver lesions by measuring necrosis at 100 mg/kg, po administered once daily for 7 consecutive days followed by CCL4 challenge 6 hrs after last dose and measured 24 hrs post CCL4 injection by hematoxylin-eosin staining based light microscopy; type: functional, organism-based
Mus musculus [28] = assay: Hepatoprotective activity against CCL4-induced liver damage in ICR mouse assessed as alanine aminotransferase level at 100 mg/kg, po administered once daily for 7 consecutive days followed by CCL4 challenge 6 hrs after last dose and measured 24 hrs post CCL4 injection (reference value: 1025 U/L); type: functional, organism-based
Mus musculus [29] = assay: Hepatoprotective activity against CCL4-induced liver damage in ICR mouse assessed as LDH level at 100 mg/kg, po administered once daily for 7 consecutive days followed by CCL4 challenge 6 hrs after last dose and measured 24 hrs post CCL4 injection (reference value: 2818 U/L); type: functional, organism-based

## C=CC(C)(C)c1cc(/C=C/C(=O)c2ccc(O)cc2)c(OC)cc1O [LICOAGROCHACONE A]
Mus musculus [1]
  Activity: 150 - 180 U/L
[2]
  Activity: > 60%
[3]
  Activity: Dose-dependent effect
Rattus norvegicus [4]
  VRT: 256.28 hr2
[5]
  MRT last: 8.48 h
[6]
  Vd/F: 370 L/kg
Rattus norvegicus [7]
  AUC: 993.88 ng·h/mL
[8]
  Tmax: 2.5 h
Rattus norvegicus [9]
  CLz/F: 389.8 mL/min/kg
Mus musculus [10]
  Activity: Active
Mus musculus [11]
  Activity: 800 - 1200 U/L
Mus musculus [12]
  Activity: 70 - 100 U/L
Mus musculus [13]
  Activity: Active
Rattus norvegicus [14]
  VRT(t): 40.43 hr2
[15]
  AUC(0-t): 837 ng·h/mL
[16]
  Cmax: 96.8 ng/mL
[17]
  MRT inf: 14.5 h
Mus musculus [18]
  Activity: Active
[19]
  half-life: 10.3 h
HepG2 [20]
  Activity: Toxic
[21]
  fold change (FC): 4.07

## COc1c(/C=C/C(=O)c2ccc(O)cc2)ccc(O)c1O
Mus musculus [1]
  Activity: 150 - 180 U/L
[2]
  Activity: > 60%
Mus musculus [10]
  Activity: Active
Mus musculus [11]
  Activity: 800 - 1200 U/L
Mus musculus [12]
  Activity: 70 - 100 U/L
HepG2 [22]
  Activity: Toxic
Mus musculus [13]
  Activity: Active
[23]
  Activity: Dose-dependent effect
Mus musculus [18]
  Activity: Active
[21]
  fold change (FC): 5.17

## COc1cc(O)ccc1/C=C/C(=O)c1ccc(O)cc1 [ECHINATIN]
Mus musculus [1]
  Activity: 150 - 180 U/L
[2]
  Activity: > 60%
Rattus norvegicus [4]
  VRT: 217.15 hr2
[5]
  MRT last: 3.98 h
[6]
  Vd/F: 154 L/kg
Rattus norvegicus [7]
  AUC: 1154.92 ng·h/mL
[8]
  Tmax: 0.5 h
Rattus norvegicus [9]
  CLz/F: 349.5 mL/min/kg
Mus musculus [10]
  Activity: Active
Mus musculus [11]
  Activity: 800 - 1200 U/L
Mus musculus [12]
  Activity: 70 - 100 U/L
HepG2 [22]
  Activity: Toxic
Mus musculus [13]
  Activity: Active
Rattus norvegicus [14]
  VRT(t): 9.97 hr2
[15]
  AUC(0-t): 686 ng·h/mL
[16]
  Cmax: 228 ng/mL
[17]
  MRT inf: 3.98 h
[23]
  Activity: Dose-dependent effect
Mus musculus [18]
  Activity: Active
[19]
  half-life: 7.32 h
[21]
  fold change (FC): 4.09

## C=CC(C)(C)c1cc(/C=C/C(=O)c2ccc(O)c(O)c2)c(OC)cc1O
[3]
  Activity: Dose-dependent effect
HepG2 [20]
  Activity: Toxic
[21]
  fold change (FC): 5.98

## SILYMARIN
Mus musculus [24]
  Activity: Active
Mus musculus [25]
  Activity: Active
Mus musculus [26]
  Activity: 150 to 180 U/L
Mus musculus [27]
  Activity: Active
Mus musculus [28]
  Activity: 70 to 100 U/L
Mus musculus [29]
  Activity: 800 to 1200 U/L
